What was measured:
[1] = system: R4A binding to dsDNA; assay: DNA ELISA, inhibition of R4A binding to dsDNA by fluid phase C1q; conditions: immobilized dsDNA
Experimental: (§1) ELISAs—Costar half-volume 96-well plates (Corning, N.Y.) were used for C1q ELISAs and Immulon 2HB 96-well plates (Milford, Mass.) were used for DNA ELISAs. C1q was purchased from Comptech (Tyler, Tex.) and adsorbed to 96-well plate (50 μg/ml) Plates were blocked with 2% BSA in PBS for 1 hour at RT. R4A antibody or IgG2b control immunoglobulin (MPC-11 hybridoma, ATCC, Manassas, Va.) was added for 1 hour at RT at various concentrations of NaCl. Cytokine ELISA was performed according to manufacturer's protocol (BD Biosciences, San Diego, Calif.). C1q collagen-tail of C1q was prepared as described in [21].

[2] = system: R4A binding to C1q; assay: ELISA, inhibition of R4A binding to C1q by peptide
Experimental: as §1

In the case of “C1q: human complement C1q, purchased from Comptech”, the “inhibition of R4A binding to dsDNA” value [1] is reported as “inhibited”.
In the case of DWEYS [reference compound], the “inhibition of R4A binding to C1q” value [2] is reported as “inhibited”.
For EADYG (fusion protein), the “inhibition of R4A binding to C1q” value [2] was “inhibited”.

— patent US9758557B2, “C1q peptides and uses thereof” (THE FEINSTEIN INSTITUTE FOR MEDICAL RESEARCH, priority 2013, dated 2017)
